According to patent publication US20210261539A1, “COMPOUND HAVING BET INHIBITORY ACTIVITY AND PREPARATION METHOD AND USE THEREFOR” (Shanghai Haihe Pharmaceutical Co., Ltd., priority 2018, published 2021):

Biological target: T1, BRD4 BD1 (Homo sapiens, UniProt O60885)
T1 construct: Protein BRD4 BD1 used in the assay was purchased from Active Motif (cat. 31380); purchased Active Motif 31380
Test: HTRF in vitro enzyme activity assay, inhibition of BRD4 BD1 binding to acetylated H4 peptide
Details: IC50 values of the compounds against BRD4 BD1 binding; class symbols A/B/C
Procedure, shortened: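 Recombinant human BRD4 BD1 (30 nM final) incubated with compound and biotinylated tetra-acetylated H4(1-21) peptide, 30 min at 37 °C; 5-point 1:5 dilution series, 0.1% DMSO final. HTRF read after 3 h at RT with SA-XL665 and Eu(K)-labelled antibody; IC50 derived.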

Structure (SMILES) | IC50 [nM]
CC1C(=O)N(C)c2ccc(-n3c(=O)c4ccccc4n3-c3ccc(Cl)cc3)nc2N1C1COC1 (stereo not shown) [Example A26-P2, 6-(1-(4-chlorophenyl)-3-oxo-1,3-dihydro-2H-indazol-2-yl)-1,3-dimethyl-4-(oxetan-3-yl)-3,4-dihydropyrido [2,3-b]pyrazin-2(1H)-one] | ≤ 10
CC1Oc2nc(-n3c(=O)c4ccccc4n3-c3ccc(Cl)cc3)ccc2N(C)C1=O (stereo not shown) [Example A32-P3, 6-(1-(4-chlorophenyl)-3-oxo-1,3-dihydro-2H-indazol-2-yl)-1,3-dimethyl-1H-pyrido[2,3-B][1,4]oxazin-2(3H)-one] | 10 to 100
C[C@@H]1C(=O)N(C)c2ccc(N3C(=O)c4ccccc4C3c3ccccn3)nc2N1C (stereo partly drawn) [Example A42-P2, (3R)-1,3,4-trimethyl-6-(1-oxo-3-(pyridin-2-yl)isoindolin-2-yl)-3,4-dihydropyrido [2,3-b]pyrazin-2-(1H)-one] | ≤ 10
CC1C(=O)N(CF)c2ccc(N3C(=O)c4ccccc4C3c3cccnc3)nc2N1C1CC1 (stereo not shown) [Example A45-P4, 4-cyclopropyl-1-(fluoromethyl)-3-methyl-6-(1-oxo-3-(pyridin-3-yl)isoindolin-2-yl)-3,4-dihydropyrido [2,3-b]pyrazin-2(1H)-one] | ≤ 10
CC1C(=O)N(CC(F)(F)F)c2ccc(N3C(=O)c4ccccc4C3c3cccnc3)nc2N1C1CC1 (stereo not shown) [Example A46-P4, 4-cyclopropyl-1-(2,2,2-trifluoroethyl)-3-methyl-6-(1-oxo-3-(pyridin-3-yl)isoindolin-2-yl)-3,4-dihydropyrido [2,3-b]pyrazin-2(1H)-one] | ≤ 10
CC1C(=O)N(C)c2ccc(N3C(=O)c4ccccc4C3c3cccnc3)nc2N1C1(C)CC1 (stereo not shown) [Example A47-P4, 1,3-dimethyl-4-(1-methylcyclopropyl)-6-(1-oxo-3-(pyridin-3-yl)isoindolin-2-yl)-3,4-dihydropyrido [2,3-b]pyrazin-2(1H)-one] | ≤ 10
CC1C(=O)N(CCF)c2ccc(N3C(=O)c4ccccc4C3c3cccnc3)nc2N1C1CC1 (stereo not shown) [Example A52-P4, 4-cyclopropyl-1-(2-fluoroethyl)-3-methyl-6-(1-oxo-3-(pyridin-3-yl)isoindolin-2-yl)-3,4-dihydropyrido [2,3-b]pyrazin-2(1H)-one] | ≤ 10
CC1C(=O)N(CC(F)F)c2ccc(N3C(=O)c4ccccc4C3c3cccnc3)nc2N1C1CC1 (stereo not shown) [Example A53-P4, 4-cyclopropyl-1-(2,2-difluoroethyl)-3-methyl-6-(1-oxo-3-(pyridin-3-yl)isoindolin-2-yl)-3,4-dihydropyrido [2,3-b]pyrazin-2(1H)-one] | ≤ 10
CC(C)N1c2nc(N3C(=O)c4ccccc4C3c3cccnc3)ccc2N(C)C(=O)C1C (stereo not shown) [Example A57-P3] | ≤ 10
CC1C(=O)N(C)c2ccc(N3C(=O)c4ccccc4C3c3ccncc3)nc2N1C1CC1 (stereo not shown) [Example A58-P1, 4-cyclopropyl-1,3-dimethyl-6-(1-oxo-3-(pyridin-4-yl)isoindolin-2-yl)-3,4-dihydropyrido[2,3-b]pyrazin-2(1H)-one] | ≤ 10
CC1C(=O)N(C)c2ccc(N3C(=O)c4ccccc4C3c3cccnc3)nc2N1CC(F)(F)F (stereo not shown) [Example A59-P2, 1,3-dimethyl-6-(1-oxo-3-(pyridin-3-yl)isoindolin-2-yl)-4-(2,2,2-trifluoroethyl)-3,4-dihydropyrido[2,3-b]pyrazin-2(1H)-one] | ≤ 10
CC1C(=O)N(C)c2ccc(N3C(=O)c4c(C(=O)NC5CC5)cccc4C3c3ccc(F)cc3)nc2N1CC(F)(F)F (stereo not shown) [Example A85-P4, N-cyclopropyl-2-(1,3-dimethyl-2-oxo-4-(2,2,2-trifluoroethyl)-1,2,3,4-tetrahydropyrido[2,3-b]pyrazin-6-fluorophenyl)-3-oxoisoindoline-4-carboxamide] | ≤ 10
C[C@@H]1C(=O)N(C)c2ccc(N3C(=O)c4c(C(=O)NC5CC5)cccc4C3c3ccccc3)nc2N1C (stereo partly drawn) [Example A87-P4, N-cyclopropyl-3-oxo-1-phenyl-2-((R)-1,3,4-trimethyl-2-oxo-1,2,3,4-tetrahydropyrido[2,3-b]pyrazin-6-yl)isoindoline-4-carboxamide] | ≤ 10
C[C@@H]1C(=O)N(C)c2cnc(N3C(=O)c4ccccc4C3c3cccnc3)nc2N1C (stereo partly drawn) [Example A90-P4, (7R)-5,7,8-trimethyl-2-(1-oxo-3-(pyridin-3-yl)isoindolin-2-yl)-7,8-dihydropteridin-6(5H)-one] | ≤ 10

Results, then the compound that gave them:

IC50 [nM] | Structure (SMILES)
≤ 10 | CC1C(=O)N(C)c2ccc(N3C(=O)CCC3c3ccc(Cl)cc3)nc2N1C1CC1 (stereo not shown) [Example A3-P3, 4-cyclopropyl-6-(2-(4-chlorophenyl)-5-oxopyrrolidin-1-yl)-1,3-dimethyl-3,4-dihydropyrido[2,3-b]pyrazin-2(1H)-one]
≤ 10 | CC1C(=O)N(C)c2ccc(-n3c(=O)c4ccccc4n3-c3ccc(C#N)cc3)nc2N1C1CC1 (stereo not shown) [Example A27-P1, 6-(1-(4-cyanophenyl)-3-oxo-1,3-dihydro-2H-indazol-2-yl)-4-cyclopropyl-1,3-dimethyl-3,4-dihydropyrido [2,3-b]pyrazin-2(1H)-one]
≤ 10 | CC1C(=O)N(C)c2cnc(-n3c(=O)c4ccccc4n3-c3ccc(Cl)cc3)cc2N1C1CC1 (stereo not shown) [Example A29-P4, 7-(1-(4-chlorophenyl)-3-oxo-1H-indazol-2(3H)-yl)-1-cyclopropyl-2,4-dimethyl-1,2-dihydropyrido [3 4-b]pyrazin-3(4H)-one]
≤ 10 | CC1C(=O)N(C)c2ccc(N3C(=O)c4ccccc4C3c3ccc(Cl)cc3)nc2N1C1COC1 (stereo not shown) [Example A31-P3, 6-(1-(4-chlorophenyl)-3-oxoisoindolin-2-yl)-1,3-dimethyl-4-(oxacyclebutan-3-yl)-3,4-dihydropyrido [3,2-B]pyrazin-2(1H)-one]
≤ 10 | C[C@H]1Oc2nc(N3C(=O)c4ccccc4C3c3cccnc3)ccc2N(C)C1=O (stereo partly drawn) [Example A33-P1, (R)-1,3-dimethyl-6-(1-oxo-3-(pyridin-3-yl)isoindolin-2-yl)-1H-pyrido[2,3-B][1,3]oxazin-2(3H)-one]
≤ 10 | CC1C(=O)N(C)c2ccc(N3C(=O)c4ccccc4C3c3cccnc3)nc2N1C1CC1 (stereo not shown) [Example A36-P3, 4-cyclopropyl-1,3-dimethyl-6-(1-oxo-3-(pyridin-3-yl)isoindolin-2-yl)-3,4-dihydropyrido [3,2-b]pyrazin-2-(1H)-one]
≤ 10 | CC1Oc2nc(N3C(=O)c4ccccc4C3c3ccc(F)cc3)ccc2N(C)C1=O (stereo not shown) [Example A39-P1, 6-(1-(4-fluorophenyl)-3-oxoisoindolin-2-yl)-1,3-dimethyl-1H-pyrido[2,3-b][1,4]oxazin-2(3H)-one]
≤ 10 | C[C@H]1Oc2nc(N3C(=O)c4ccccc4C3c3ccc(Cl)cc3)ccc2N(C)C1=O (stereo partly drawn) [Example A40-P1, (3R)-6-(1-(4-chlorophenyl)-3-oxoisoindolin-2-yl)-1,3-dimethyl-1H-pyrido[2,3-B][1,4]oxazin-2(3H)-one]
≤ 10 | [2H]C([2H])([2H])N1C(=O)C(C)N(C2CC2)c2nc(N3C(=O)c4ccccc4C3c3cccnc3)ccc21 (stereo not shown) [Example A43-P4, 4-cyclopropyl-3-methyl-1-(trideuteromethyl)-6-(1-oxo-3-(pyridin-3-yl)isoindolin-2-yl)-3,4-dihydropyrido [2,3-B]pyrazin-2(1H)-one]
≤ 10 | CC1C(=O)N(C)c2cc(F)c(N3C(=O)c4ccccc4C3c3cccnc3)nc2N1C1CC1 (stereo not shown) [Example A44, 4-cyclopropyl-7-fluoro-1,3-dimethyl-6-(1-oxo-3-(pyridin-3-yl)isoindolin-2-yl)-3,4-dihydropyrido [2,3-b]pyrazin-2(1H)-one]
≤ 10 | C[C@@H]1C(=O)N(C)c2ccc(N3C(=O)c4ccccc4C3c3cccnc3)nc2N1C (stereo partly drawn) [Example A48-P4, (3R)-1,3,4-trimethyl-6-(1-oxo-3-(pyridin-3-yl)isoindolin-2-yl)-3,4-dihydropyrido [2,3-b]pyrazin-2-(1H)-one]
≤ 10 | CCN1C(=O)C(C)N(C2CC2)c2nc(N3C(=O)c4ccccc4C3c3cccnc3)ccc21 (stereo not shown) [Example A49-P4, 4-cyclopropyl-1-ethyl-3-methyl-6-(1-oxo-3-(pyridin-3-yl)isoindolin-2-yl)-3,4-dihydropyrido [2,3-b]pyrazin-2-(1H)-one]
≤ 10 | [2H]C([2H])([2H])N1C(=O)C(C)N(C2CC2)c2nc(N3C(=O)c4ccccc4C3c3ccc(F)cc3)ccc21 (stereo not shown) [Example A51-P3, 4-cyclopropyl-6-(1-(4-fluorophenyl)-3-oxoisoindolin-2-yl)-3-methyl-1-(trideuteromethyl)-3,4-dihydropyrido [2,3-B]pyrazin2(1 H)-one]
≤ 10 | CC1C(=O)N(C)c2ccc(N3C(=O)c4ccccc4C3c3cccnc3)nc2N1C1COC1 (stereo not shown) [Example A54-P4, 1,3-dimethyl-4-(oxetan-3-yl)-6-(1-oxo-3-(pyridin-3-yl)isoindolin-2-yl)-3,4-dihydropyrido [2,3-b]pyrazin-2(1H)-one]
≤ 10 | CC1C(=O)N(C)c2ccc(N3C(=O)c4ccccc4C3c3ccccc3)nc2N1CC(F)(F)F (stereo not shown) [Example A56-P1, 1,3-dimethyl-6-(1-oxo-3-phenylisoindolin-2-yl)-4-(2,2,2-trifluoroethyl)-3,4-dihydropyrido [2,3-b]pyrazin-2(1H)-one]
≤ 10 | CC[S+]([O-])c1cccc2c1C(=O)N(c1ccc3c(n1)N(C1CC1)C(C)C(=O)N3C)C2c1cccnc1 (stereo not shown) [Example A73, 4-cyclopropyl-6-(4-(ethylsulfinyl)-3-oxo-1-(pyridin-3-yl)isoindolin-2-yl)-1,3-dimethyl-3,4-dihydropyrido[2,3-b]pyrazin-2(1H)-one]
≤ 10 | C[C@@H]1C(=O)N(C)c2ccc(N3C(=O)c4c(C(=O)NC5CC5)cccc4C3c3ccc(F)cc3)nc2N1C (stereo partly drawn) [Example A86-P3, N-cyclopropyl-1-(4-fluorophenyl)-3-oxo-2-((R)-1,3,4-trimethyl-2-oxo-1,2,3,4-tetrahydropyrido[2,3-b]pyrazin-6-yl)isoindoline-4-carboxamide]
